Data: PubChem BioAssay (NCI)
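Tested at 5 concentrations; 48 h exposure; 96-well plates; endpoints linearly interpolated, else capped at highest concentration. Definition used: TGI = concentration required for complete inhibition of growth.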

Key:
Experiment in all cases: growth of human tumour cells (NCI), 48 h
[1] = test system: HCT-116 colon
[2] = test system: HCT-15 colon
[3] = test system: HOP-92 NSCLC
[4] = test system: IGROV1 ovarian
[5] = test system: K-562 leukemia
[6] = test system: M14 melanoma
[7] = test system: MALME-3M melanoma
[8] = test system: MCF7 breast
[9] = test system: MDA-MB-231 breast
[10] = test system: NCI-H226 lung
[11] = test system: NCI-H522 lung
[12] = test system: NCI/ADR-RES ovarian
[13] = test system: OVCAR-4 ovarian
[14] = test system: OVCAR-8 ovarian
[15] = test system: SF-539 CNS
[16] = test system: SK-MEL-28 melanoma
[17] = test system: SNB-19 CNS
[18] = test system: ACHN renal
[19] = test system: CAKI-1 renal
[20] = test system: EKVX NSCLC

SMILES	TGI [1] [µM]	TGI [2] [µM]	TGI [3] [µM]	TGI [4] [µM]	TGI [5] [µM]	TGI [6] [µM]	TGI [7] [µM]	TGI [8] [µM]	TGI [9] [µM]	TGI [10] [µM]	TGI [11] [µM]	TGI [12] [µM]	TGI [13] [µM]	TGI [14] [µM]	TGI [15] [µM]	TGI [16] [µM]	TGI [17] [µM]	TGI [18] [µM]	TGI [19] [µM]	TGI [20] [µM]
CCNC1=C(NC(=O)c2ccccc2)C(=O)c2ccccc2C1=O	> 100	> 100	> 100	> 100	> 100	> 100	43	> 100	> 100	> 100	79.2	39.7	> 100	> 100	> 100	> 100	> 100	–	–	–
CCOC(=O)NN(C(=O)OCC)C(=C(C1=CCCCC1)N1CCOCC1)N(NC(=O)OCC)C(=O)OCC	–	> 100	> 100	> 100	> 100	> 100	> 100	> 100	> 100	> 100	–	> 100	–	> 100	–	> 100	> 100	> 100	> 100	> 100
Nc1cc2ncnn2c(SCC(=O)N/N=C/C(Br)=C\c2ccccc2)n1	> 100	37.1	–	24.6	> 100	–	28.3	38.8	40	68.6	22.9	91.8	–	52.3	39.2	37.6	> 100	62.7	37.2	> 100
c1ccc(Cn2c(-c3ccc(-c4ccccc4)cc3)cc3ccccc32)cc1	> 100	> 100	> 100	> 100	–	> 100	> 100	> 100	> 100	> 100	> 100	> 100	> 100	> 100	> 100	> 100	> 100	> 100	> 100	> 100
COc1ccc(-c2csc(Cc3nc4c(Br)cc(Br)cc4c(=O)n3-c3ccc(OC)cc3)n2)cc1	> 100	> 100	> 100	> 100	–	63.1	–	> 100	> 100	> 100	–	> 100	> 100	> 100	–	> 100	50.6	> 100	> 100	> 100
N#CC(C#N)=c1c2ccccc2c(=C(C#N)C#N)c2ccccc12	34.4	65	88.6	30.2	> 100	32.8	–	> 100	32.9	38.2	–	72.4	–	42.7	–	48.3	32.4	43.3	28.6	–
COC(=O)Cc1c([C@H]2[C@H](CC(=O)OC)c3ccccc3N2S(=O)(=O)c2ccc(C)cc2)[nH]c2ccccc12	> 100	> 100	> 100	–	> 100	> 100	> 100	> 100	> 100	> 100	> 100	> 100	> 100	> 100	> 100	> 100	> 100	> 100	> 100	> 100
C[P+](c1ccccc1)(c1ccc(Cl)cc1)c1ccc(Cl)cc1	44.9	> 100	40.3	21.8	74.4	34.4	19.6	> 100	82	88.6	33.1	> 100	45.2	36.6	65.4	29	59.1	> 100	–	99.3
CC(=O)C1C(=O)C(=O)N(c2ccc([N+](=O)[O-])cc2)C1=O (stereo unspecified)	> 100	> 100	> 100	> 100	–	> 100	–	> 100	> 100	> 100	> 100	> 100	> 100	> 100	> 100	> 100	> 100	> 100	> 100	> 100
CCOC(=O)CSC1NC(C(=O)OC)CC1OC (stereo unspecified)	> 100	> 100	> 100	> 100	> 100	> 100	> 100	> 100	> 100	–	> 100	> 100	> 100	> 100	–	> 100	> 100	> 100	> 100	> 100
Nc1ncc(C=O)c(NCC2(CO)CCC2)n1	> 100	> 100	87.8	> 100	> 100	–	> 100	> 100	> 100	> 100	> 100	> 100	> 100	> 100	> 100	–	–	–	44.3	–
COC(=O)c1c(C)c2c(c(C)c1C(=O)OC)-c1c(C)ccc3ccc(C)c-2c13	> 100	> 55.6	–	> 100	> 100	> 100	> 100	> 100	> 60.6	> 100	> 100	> 100	> 100	> 100	> 100	> 100	> 100	> 100	> 100	> 100
COc1ccc(CCNC(=O)c2ccccc2C2c3ccc(OCc4ccccc4)cc3Oc3cc(OCc4ccccc4)ccc32)cc1OC	> 100	> 100	–	> 100	> 100	> 100	> 100	> 100	> 100	> 100	> 100	> 100	> 100	> 100	–	> 100	> 100	> 100	> 100	> 100
